Data reported in publication PMC10611374, “Characterization of the Hemolytic Activity of Mastoparan Family Peptides from Wasp Venoms” (Toxins, 2023).
In brackets after ≈: the same amount, converted by molar mass. Several values for one entry are separate records, joined by “and”; a condition that tells them apart may be missing. Equal values may be shown once. Read-outs that look alike come from different tables or passages of the source. Ends that are not written are not given here.

Key:
[1] = test system: S. aureus; settings: reported antibacterial activity; reference per peptide in Table 3; cited from earlier work
[2] = test system: human red blood cells (HRBCs); assay: Hemolytic assay on human red blood cells; assay type: cell-based; settings: for HRBC Hemolysis (hemolysis rate at 320 μg/mL) / EC50: human red blood cells 5% (v/v) in PBS, 37 °C 1 h, OD 540 nm; for HRBC Hemolysis (hemolysis rate at 320 μg/mL): peptide 320 μg/mL (highest dose), PBS = 0%, mean of three independent experiments; for EC50: four-parameter logistic fit of mean of three independent experiments, '-' = hemolytic activity too low to calculate the EC50; for hemolytic activity on HRBCs, result in words: mutants relative to Protopolybia-MPIII
Procedure: (§1) Fresh human red blood cells were obtained from healthy donors and collected in a sterile blood collecting vessel covered with sodium citrate (1:9) as the anticoagulating agent. Rat red blood cells were collected from the abdominal aorta in sterile blood-collecting vessels coated with sodium citrate (1:4) after the SD rats were anaesthetized with isoflurane. Then, the cells were washed three times with phosphate-buffered saline via centrifugation (1000× g, 4 °C, 5 min) and prepared in a sterile 96-well polypropylene plate to achieve a final concentration of 5% (v/v). Twofold dilutions of the peptides were prepared in PBS to 100 μL and mixed with an equal volume of HRBCs/RRBCs suspension to final peptide concentrations ranging from 10 to 320 μg/mL. After coincubation at 37 °C for 1 h, the plate was centrifuged (2000× g, 4 °C, 20 min), and 100 μL of supernatant was taken for optical density measurements at 540 nm using a microtiter plate reader (SpectraMax 190). The HRBCs/RRBCs were assayed with PBS (blank) or 1% Triton X-100 (positive control) to represent 0% and 100% hemolysis, respectively. The percent hemolysis was calculated according to the following equation: Hemolysis Rate (%) = 100% × (Amastoparans − Ablank)/(ATriton X-100 − Ablank). Three independent experiments were performed, and the mean hemolysis rate at each dose was used to calculate the EC50 in Sigmaplot software.
(§2) Statistical analysis was performed with GraphPad Prism software (version 5.0, San Diego, CA, USA). A two-tailed Student’s t-test was used to calculate the statistical probability in this study. Differences in the data were considered to be statistically significant when the p value was equal to or less than 0.05. The curve of hemolysis induced by wasp mastoparans was generated in SigmaPlot 12.5 software, and the EC50 was calculated according to the equation (Four Parameter Logistic Curve): y = min + (max − min)/(1 + (x/EC50)^−Hillslope). The heat map of hemolytic activity of mastoparan peptide was analysed in R software which is based on the value of log2(EC50).

[3] = test system: E. coli; settings: reported antibacterial activity; reference per peptide in Table 3; cited from earlier work
[4] = test system: rat red blood cells (RRBCs); assay: Hemolytic assay on rat red blood cells; assay type: cell-based, SD rats; settings: for RRBC Hemolysis (hemolysis rate at 320 μg/mL) / EC50: rat red blood cells 5% (v/v) in PBS, 37 °C 1 h, OD 540 nm; for RRBC Hemolysis (hemolysis rate at 320 μg/mL): peptide 320 μg/mL (highest dose), PBS = 0%, mean of three independent experiments; for EC50: four-parameter logistic fit of mean of three independent experiments, '-' = hemolytic activity too low to calculate the EC50
Procedure: as §1, §2

[5] = peptide 10-320 μg/mL twofold dilutions, 1% Triton X-100 = 100%, read-out: HRBC EC50 (hemolytic activity)
[6] = peptide 10-320 μg/mL twofold dilutions, 1% Triton X-100 = 100%, read-out: RRBC EC50 (hemolytic activity)
[7] = Table 2 series, read-out: HRBC EC50 (hemolytic activity), Protopolybia-MPIII and mutants
[8] = Table 2 series, read-out: RRBC EC50 (hemolytic activity), Protopolybia-MPIII and mutants

Compound | HRBC Hemolysis (hemolysis rate at 320 μg/mL) ([2]; 1% Triton X-100 = 100%) | EC50 [2, 5] | RRBC Hemolysis (hemolysis rate at 320 μg/mL) ([4]; 1% Triton X-100 = 100%) | EC50 [4, 6] | EC50 [2, 7] | EC50 [4, 8] | other results
CC[C@H](C)[C@H](NC(=O)[C@H](CO)NC(=O)[C@H](CCCCN)NC(=O)[C@H](CC(C)C)NC(=O)[C@H](CCCCN)NC(=O)[C@@H](N)CC(C)C)C(=O)N[C@H](C(=O)N[C@@H](CO)C(=O)N[C@@H](Cc1c[nH]c2ccccc12)C(=O)N[C@@H](C)C(=O)N[C@@H](CCCCN)C(=O)N[C@@H](CCCCN)C(=O)N[C@H](C(=O)N[C@@H](CC(C)C)C(N)=O)C(C)C)C(C)C [Mastoparan-B] | 22% | > 400 µM | 19% | > 400 µM |  |  | MIC S. aureus [1]: 60 µM (≈ 96.7 µg/mL); MIC E. coli [3]: 10 µM (≈ 16.1 µg/mL)
INLKAIAAFAKKLL-NH2 [Mastoparan-T(D)] | 15% | > 400 µM | 19% | > 400 µM |  |  | MIC S. aureus [1]: 15.9 µM; MIC E. coli [3]: 5.3 µM
INLKAIAALAKKLL-NH2 [Mastoparan-M] | 18% | > 400 µM | 28% | > 400 µM |  |  | MIC S. aureus [1]: 3.38 µM; MIC E. coli [3]: 13.5 µM
INMKASAAVAKKLL-NH2 [MP-VB1] | 0% | > 400 µM | 7% | > 400 µM |  |  | MIC S. aureus [1]: 2.5 µM; MIC E. coli [3]: 10.3 µM
INWKKIKSLIKAAMS-NH2 [Mastoparan-V2] | 15% |  | 52% | 182 ± 3.6 µM |  |  | 
INWKKMAATALKMI-NH2 [Parapolybia-MP] | 32% | ≥ 400 µM and > 400 µM and 306 µM | 22% |  |  |  | 
INWLKLGKAIIDAL-NH2 [Agelaia-MPI] | 100% | 3.7 ± 0.14 µM | 98% | 7 ± 0.7 µM |  |  | 
INWLKLGKAVIAAL-NH2 [Protopolybia-MPIII-3] |  |  |  |  | 16.8 ± 1 µM | 21.5 ± 1.2 µM | 
INWLKLGKAVIAIL-NH2 [Protopolybia-MPIII-10] |  |  |  |  | 11.3 ± 1.2 µM | 11.7 ± 1 µM | 
INWLKLGKAVIDAL-NH2 [Protopolybia-MPIII] | 96% | 61.9 ± 8.3 µM | 93% | 34.6 ± 2.8 µM |  | 42.8 ± 2.1 µM | 
INWLKLGKAVIDIL-NH2 [Protopolybia-MPIII-4] |  |  |  |  | 11.3 ± 6.2 µM | 19.8 ± 1.2 µM | 
INWLKLGKAVSAAL-NH2 [Protopolybia-MPIII-8] |  |  |  |  | 308 ± 6.2 µM | 444 ± 2.1 µM | 
INWLKLGKAVSAIL-NH2 [Protopolybia-MPIII-11] |  |  |  |  | 141 ± 2.4 µM | 134 ± 2.2 µM | 
INWLKLGKAVSDAL-NH2 [Protopolybia-MPIII-2] |  |  |  |  | 673 ± 189 µM | 639.5 ± 1.6 µM | 
INWLKLGKAVSDIL-NH2 [Protopolybia-MPIII-9] |  |  |  |  | 167 ± 2.7 µM | 161.7 ± 1.3 µM | 
INWLKLGKKILGAI-NH2 [Pm-R1] | 100% | 72 ± 8.5 µM | 92% | 105 ± 2.2 µM |  |  | 
INWLKLGKKILGAL-NH2 [PDD-B] | 100% | 48.5 ± 3.4 µM | 100% | 55.6 ± 4.1 µM |  |  | 
INWLKLGKKMMSAL-NH2 [MP] | 87% | 124 ± 15.3 µM | 10% |  |  |  | 
INWLKLGKKVIAAL-NH2 [Protopolybia-MPIII-6] |  |  |  |  | 110 ± 2.5 µM | 108 ± 3.2 µM | 
INWLKLGKKVIAIL-NH2 [Protopolybia-MPIII-12] |  |  |  |  | 43.9 ± 3.6 µM | 55.2 ± 2.2 µM | 
INWLKLGKKVIDAL-NH2 [Protopolybia-MPIII-1] |  |  |  |  | 176.4 ± 1 µM | 158 ± 2.3 µM | 
INWLKLGKKVIDIL-NH2 [Protopolybia-MPIII-7] |  |  |  |  | 37.8 ± 3.7 µM | 57.5 ± 2.7 µM | 
INWLKLGKKVSAIL-NH2 [Protopolybia-MP I] | 5% | > 400 µM | 5% | > 400 µM | > 400 µM | > 400 µM | hemolytic activity on HRBCs, result in words [2]: almost no hemolytic activity
INWLKLGKMVIDAL-NH2 [Polybia-MP II] | 91% | 23.3 ± 1.4 µM | 100% | 29.1 ± 1.5 µM |  |  | EC50 ([2]; peptide 10-320 μg/mL twofold dilutions, 1% Triton X-100 = 100%, listed as Polybia-MPII, read-out: HRBC EC50 (hemolytic activity)): ≤ 400 µM
INWLKLGKQILGAL-NH2 [Pm-R3] | 100% | 32.3 ± 1.7 µM | 100% | 73.5 ± 5.1 µM |  |  | 
LNFKALAALAKKIL-NH2 [Pm-R2] | 66% | 166 ± 8 µM | 34% | 250 ± 9.9 µM |  |  | 
LNLKGLFKKVASLLT [Eumenitin-F] | 67% | 157 ± 2.6 µM | 44% | 207.1 ± 2 µM |  |  | 
LNLKGLIKKVASLLN-OH [Eumenitin-R] | 5% | > 400 µM | 7% | > 400 µM |  |  | MIC S. aureus [1]: 60 µM; hemolytic activity on HRBCs, result in words [2]: almost no hemolytic activity; MIC E. coli [3]: 30 µM; hemolytic activity on RRBCs, result in words [4]: almost no hemolytic activity
VDWKKIGQHILSVL-NH2 [Mastoparan-J] | 100% | 69.5 ± 3.2 µM | 100% | 60.1 ± 1.3 µM |  |  | 
